Reference: the supplement of paper PMC10307832

Experiments:
[1] = compound: COc1cc2nc(N3CCCN(C)CC3)nc(NC3CCN(Cc4ccccc4)CC3)c2cc1OC; experiment: relative viability (nuclei count vs DMSO), 5 days (fraction); higher = more cells survive
Summary of the method: (§1)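 MetaXpress counted nuclei in 4× images of lung cancer cell lines that had been fixed, permeabilised and Hoechst-stained in one step. Before that, cells in 1536-well plates were kept overnight at 37 °C, pinned with five √10-spaced library-drug doses on vehicle-anchored plates, and cultured 5 days without medium change. Viability takes treated-well nuclei over vehicle-well nuclei and uses the median across plates. Plates were accepted only at control CV below 25% and at least one doubling.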

AZD6482 = compound: Cc1cc([C@@H](C)Nc2ccccc2C(=O)O)c2nc(N3CCOCC3)cc(=O)n2c1 [AZD6482]; experiment: as above
Summary of the method: as §1

Cell Line	relative viability ([1]; 0.2 µM)	relative viability ([1]; 0.6325 µM)	relative viability ([1]; 2 µM)	relative viability ([1]; 6.325 µM)	relative viability (AZD6482; 0.08 µM)	relative viability (AZD6482; 0.253 µM)	relative viability (AZD6482; 0.8 µM)	relative viability (AZD6482; 2.53 µM)	relative viability (AZD6482; 8 µM)
RERF-LC-KJ	0.995	0.977	1.04	0.912	0.875	0.888	0.784	0.878	0.763
SK-LU-1	1.01	1.01	1.08	1.02		0.978	1.03	0.722	0.592
SK-MES-1	1.01	1.01	1.03	0.791	0.794	0.946	0.709	0.405	0.444
SW 900	0.81	1.03	0.89	0.752	0.675	0.683	0.691	0.486	0.778
SW 1573	0.906	0.983	1.02	0.651	0.916	0.908	0.818	0.677	0.674
